Measured values taken from patent US6211215A, “Heterocyclic compounds, their production and use” (Takeda Chemical Industries, Ltd., priority 1996, dated 2001).

Legend:
[1] = tested on: human prostate cancer cell line, LNCaP; assay: In vivo inhibition of prostate cancer (2); set-up: species or system male Balb/C-strain athymic nude mice; settings: for Tumor growth rate (%): 60 mg/kg/day, oral, 30 mg/kg twice daily for 21 days
Protocol: 5,000,000 cells of human prostate cancer cell line, LNCaP, were suspended in a gelmatrix solution and implanted subcutaneously at the breast in 8-week old male Balb/C-strain athymic nude mice (Friedman R. et al., Proceedings of the National Academy of Sciences of the U.S.A. Vol. 87, pp.6698-6702, 1990). 33 days after the implantation, the diameters of tumors were measured. Five mice per group with similar tumor size were used for the experiment. Compound 8 of the present invention was suspended in a 5% gum arabic solution (physiological saline) and administered orally twice daily in a dose of 30 mg/kg body weight for 21 days. For another experiment, the mice were castrated 33 days after implantation of the cancer cell for observing the effect of hormone depletion on the prostate cancer growth. Furthermore, Compound 8 of the present invention was administered orally twice daily in a dose of 30 mg/kg body weight for 21 days to the castrated mice. After the completion of the dosing, the diameters of tumor were measured. The tumor volume was calculated by the following formula: volume of tumor=longest diameter×shortest diameter×shortest diameter×1/2. The growth rate of tumors was obtained as the proportion to the volume of tumor in the control animals in which only the gum arabic solution was administered. The body weights of mice administered with Compound 8 of the present invention were measured during the experiment to observe no decrease.

[2] = tested on: human mammary cancer cell line; assay: Selective in vitro inhibition of breast cancer cell growth (panel of cell lines, Test Example 6); type: cell-based; settings: Table 6 cell lines
Protocol: (§1) 100 μl (containing 2,000 cells) of a cell suspension of various human breast cancer cell lines shown in [Table 6] was seeded in each well of the 96-well microtiter plates. The cells were incubated at 37° C. in a 5% carbon dioxide gas incubator. Next day, 100 μl of a 2 fold serial dilution of a compound solution was added to each well. The cultures were incubated for 3 days. The solution containing the compound was removed and the cells were washed with water. To the cells was added a 0.4% (V/W) dye SRB (dissolved in 1% acetic acid) solution to fix and stain the cell protein. The dye solution was removed and the fixed and stained cell protein was washed. The protein-bound dye was extracted with 200 μl of 10 mM Tris buffer. The optical density of the extracted dye was determined at the wavelength of 540 nm to estimate the quantity of the cells in terms of the protein quantity. Designating the protein quantity in the control to which no compound solution was added as 100%, the proportion of the residual protein quantity in each treated group was calculated, and IC50, which was the concentration of the compound required to inhibit the residual protein quantity to 50% the quantity of the control, was calculated.

ASPC-1 = assay: Selective in vitro inhibition of breast cancer cell growth; type: cell-based; settings: Homo sapiens, ASPC1, 72 h; Pancreatic cancer ASPC-1; 3 days; SRB; read-out: IC50, inhibition of cell proliferation
Protocol: as §1

WiDr = assay: as above; type: cell-based; settings: Homo sapiens, 72 h; Large intestinal cancer WiDr; 3 days; SRB; read-out: IC50, inhibition of cell proliferation
Protocol: as §1

**Q.** How did the “Tumor growth rate (%)” value ([1]; castrated group (castrated without compound: 69)) turn out when `C(=C\c1nc(COc2ccc(CCCn3ccnc3)cc2)co1)/c1ccccc1` [Compound 8, 4-[4-[3-(1-imidazolyl)propyl]phenoxymethyl]-2-[(E)-2-phenylethenyl]oxazole] was run?
**A.** The value was 55%.

**Q.** And the “Tumor growth rate (%)” value ([1]; non-castrated, tumor volume vs control)?
**A.** The value was 80%.

**Q.** What about the “Inhibition of implanted tumor growth” value ([1]; LNCaP, athymic nude mice) of the same molecule?
**A.** Its value is “inhibiting tumor growth of hormone dependent prostate cancer LNCaP”.

**Q.** And the “Effect of castration on tumor growth inhibiting effect” value ([1]; LNCaP, castrated athymic nude mice)?
**A.** Its value is “further enhanced when the hormone levels were reduced by castration”.

**Q.** And the “Selective inhibition of cell growth” value [2]?
**A.** The value was “inhibit specifically the cell growth of human mammary cancer cell line”.

**Q.** And the IC50 (ASPC-1)?
**A.** Its IC50 is 2500 nM.

**Q.** And the IC50 (WiDr)?
**A.** The IC50 was 2100 nM.
